Test results taken from patent US4576943A, “Pyrazolo[1,5-a]pyrimidines” (American Cyanamid Company, priority 1984, dated 1986).

Key:
[1] = Non-conditioned passive avoidance test in rats (antianxiety); format: in vivo, Wistar strain rats; parameters: key: Active: the number of shocks received by the test group is significantly higher than the control group by the Mann-Witney U test; conditions: 25 mg/kg, oral or intraperitoneal
Protocol: The antianxiety effects of the novel compounds of the present invention have been assessd in a non-conditioned passive avoidance procedure described by J. R. Vogel, B. Beer and D. E. Clody, "A Simple and Reliable Conflict Procedure for Testing Antianxiety Agents", Psychopharmacologia, 21, 1-7 (1971). A conflict situation was induced in rats by a modification of this method.
Groups of 6 naive, Wistar strain rats, weighing 200-240 g each, were deprived of water for 48 hours and food for 24 hours. The test compounds were administered in single or graded, oral or intraperitoneal doses, suspended in a 2% starch vehicle containing 0.5% v/v polyethylene glycol and one drop of Polysorbate 80. Control animals received the vehicle alone. At 30 or 60 minutes each rat was placed in an individual plexiglass chamber. Water was available ad libitum from a tap located in the rear of the chamber. A 0.7 milliampere DC shocking current was established between the stainless steel grid floor and the tap. After 20 licks of non-shocked drinking, a shock was delivered for 2 seconds and then further shocks were delivered on a ratio of one shock for 2 seconds for every 20 licks. This was continued for a total of 3 minutes. The number of shocks taken by each rat during the 3 minute interval was recorded and compared to a control group.

[2] = Hypotensive activity in spontaneously hypertensive rats; format: in vivo, spontaneously hypertensive rats of the Okamoto strain; conditions: 100 mg/kg by gavage, two doses 24 hours apart, measured at 28 hours after the initial dose; one or two rats
Protocol: The novel compounds of the present invention are active hypotensive agents and were tested for hypotensive activity by the method of P. S. Chan and D. Poorvin, Clinical and Experimental Hypertension, 1 (6), 817-830 (1979). […] One to 3 rats are used per test compound. A rat is dosed by gavage with a test compound suspended in 2% pre-boiled starch at a concentration of 50 mg/ml, at a dose of 100 mg/kg of body weight or less, with 0.9% sodium chloride loading at a dose of 25 ml/kg of body weight. A second identical dose of the test compound, without sodium chloride loading is given 24 hours later. At 28 hours after the initial dose the mean arterial blood pressure is measured by the method of Chan and Poorvin (see above). The procedure is repeated in a second and third rat when necessary. The results of this test on representative compounds of the present invention which were obtained using one or two rats, at a dose of 100 mg/kg of body weight appear below in Table I.

Hypoxic Survival Test = format: in vivo, Royal Hart mice; conditions: 50 mg/kg i.p., 10% oxygen, 5 minutes
Protocol: Groups of 20 Royal Hart mice (6 weeks of age) are injected intraperitoneally with 10, 50 or 100 mg/kg of test compound 30 minutes prior to placing them in a hypoxic mixture (10% oxygen in 90% […]) and measuring survival after 5 minutes.
A separate group of 20 mice is injected intraperitoneally with saline solution (0.01 cc/g of body weight) and processed as described above.
Still another group of 20 mice is injected intraperitoneally with 0.125 mg/kg of physostigmine and processed as described above.

[3] = Passive Avoidance Anoxic Induced Amnesia Test; format: in vivo, Swiss-Webster, middle-aged mice; conditions: 100 mg/kg i.p., 30 minutes prior to training and testing; over saline control
From the text: Another in vivo test associated with decreased neural function in mammals is the Passive Avoidance Anoxic Induced Amnesia Test. This test is used to determine the attenuation of anoxic induced amnesia in mice treated with drug, as compared to saline treated control animals with no drug.
A shock-motivated, single trial, step-through passive avoidance procedure is used. Groups of 25 Swiss-Webster, middle-aged mice (9 months of age) are placed singly in the front chamber of a 2-chamber box and are allowed to voluntarily cross into the rear chamber. As soon as the mouse enters the rear chamber, a guillotine door automatically traps the animal and a mild electric shock (0.4 mA for 4 seconds) is delivered to its feet. Following the foot shock, the mice are initially placed in an anoxic environment (0% oxygen) for 12 seconds, which quickly induces unconsciousness. They are then placed in a hypoxic environment (15% oxygen) for four minutes which prolongs the oxygen deprived state, maintaining unconsciousness. All testing is performed 24 hours later, and in all cases the mice appear fully recovered from the previous anoxic/hypoxic treatment. All test compounds are administered intraperitoneally at a dose of 10-100 mg/kg, 30 minutes prior to training and testing. […]
The latency to enter the rear chamber is recorded for both training and testing. […]

| Compound | Result (non-conditioned passive avoidance) [1] | Mean Arterial Blood Pressure [2] | % Survivors (Hypoxic Survival Test) [%] | % Improvement [3] [%] |
| --- | --- | --- | --- | --- |
| N#Cc1c(N2CCOCC2)nn2c(-c3cccc(C(F)(F)F)c3)ccnc12 [2-(4-Morpholinyl)-7-[3-(trifluoromethyl)phenyl]pyrazolo[1,5-a]pyrimidine-3-carbonitrile] | Active | 142 mm of mercury |  |  |
| N#Cc1c(N2CCN(Cc3ccccc3)CC2)nn2c(-c3cccc(C(F)(F)F)c3)ccnc12 [2-[4-(Phenylmethyl)-1-piperazinyl]-7-[3-(trifluoromethyl)phenyl]pyrazolo[1,5-a]pyrimidine-3-carbonitrile] |  |  | 52 | 44 |
| N#Cc1c(N2CCN(Cc3cccc(Cl)c3)CC2)nn2c(-c3ccccc3)ccnc12 [2-[4-[(3-Chlorophenyl)methyl]-1-piperazinyl]-7-phenylpyrazolo[1,5-a]pyrimidine-3-carbonitrile] | Active |  |  |  |
| Cc1cc(-c2ccccc2)n2nc(N3CCN(Cc4ccccc4)CC3)c(C#N)c2n1 [5-Methyl-7-phenyl-2-[4-(phenylmethyl)-1-piperazinyl]-pyrazolo[1,5-a]pyrimidine-3-carbonitrile] | Active | 131 mm of mercury |  |  |
